Data reported in publication PMC5666424, “Marine-Derived 2-Aminoimidazolone Alkaloids. Leucettamine B-Related Polyandrocarpamines Inhibit Mammalian and Protozoan DYRK & CLK Kinases” (Marine Drugs, 2017).
Where two headings read alike, the source gives them in different places.

Columns and labels:
[1] = tested on: 27 purified kinases (14 mammalian and 13 unicellular parasites); test: Battery of 27 purified kinases
TgCLK = TgCLK (Toxoplasma gondii, UniProt V4ZJD6); test: Protein kinase assay; type: biochemical
GSK-3α/β = test: Protein kinase assay; type: biochemical, porcine; settings: 15 μmol/L ATP
LmDYRK2 = LmDYRK2 (Leishmania major, UniProt Q4Q405); test: Protein kinase assay; type: biochemical
CpLAMMER = CpLAMMER (Cryptosporidium parvum, UniProt A3FQG5); test: Protein kinase assay; type: biochemical
LdDYRK3 = LdDYRK3 (Leishmania donovani, UniProt E9BS59); test: Protein kinase assay; type: biochemical
LdDYRK1B = LdDYRK1B (Leishmania donovani, UniProt E9BC59); test: Protein kinase assay; type: biochemical; settings: 15 μmol/L ATP
LmCLK = LmCLK (Leishmania major, UniProt Q4QHY4); test: Protein kinase assay; type: biochemical
PfCLK1 = PfCLK1 (Plasmodium falciparum, UniProt Q8IL19); test: Protein kinase assay; type: biochemical
GlCLK = GlCLK (Giardia intestinalis, UniProt A8BBY0); test: Protein kinase assay; type: biochemical
TcCLK1 = TcCLK1 (Trypanosoma cruzi, UniProt Q4E3Z1); test: Protein kinase assay; type: biochemical
PfGSK-3 = molecular target: T1, PfGSK-3 (Plasmodium falciparum, UniProt O77344); test: Protein kinase assay; type: biochemical
T1 sequence (O77344 1-440): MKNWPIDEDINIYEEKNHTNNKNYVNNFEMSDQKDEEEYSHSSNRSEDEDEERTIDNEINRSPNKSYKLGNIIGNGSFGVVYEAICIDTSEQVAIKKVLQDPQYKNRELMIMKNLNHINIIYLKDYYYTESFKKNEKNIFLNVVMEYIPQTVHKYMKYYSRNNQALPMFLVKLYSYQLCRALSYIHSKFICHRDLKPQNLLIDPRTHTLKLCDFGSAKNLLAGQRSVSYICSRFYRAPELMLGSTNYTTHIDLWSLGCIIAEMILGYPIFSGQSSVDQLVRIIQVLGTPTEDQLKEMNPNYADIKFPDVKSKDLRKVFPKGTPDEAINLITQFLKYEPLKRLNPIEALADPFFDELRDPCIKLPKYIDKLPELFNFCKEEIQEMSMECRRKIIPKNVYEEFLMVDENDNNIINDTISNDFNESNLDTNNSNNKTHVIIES

CLK4 = CLK4 (Mus musculus, UniProt O35493); test: Protein kinase assay; settings: IC50 CLK4, 15 μmol/L ATP
CLK3 = CLK3 (Mus musculus, UniProt O35492); test: Protein kinase assay; settings: IC50 CLK3, 15 μmol/L ATP
EGFR(L747-T751del,Sins) = test: KinomeScan; type: binding, human; settings: 1 μM
Method: (§1) Assays were performed essentially as described previously. For most assays, kinase-tagged T7 phage strains were grown in parallel in 24-well blocks in an E. coli host derived from the BL21 strain. E. coli were grown to log-phase and infected with T7 phage from a frozen stock (multiplicity of infection ~0.1) and incubated with shaking at 32 °C until lysis (~90 min). The lysates were centrifuged (6000× g) and filtered (0.2 μm) to remove cell debris. The remaining kinases were produced in HEK-293 cells and subsequently tagged with DNA for qPCR detection. […] The liganded beads were blocked with excess biotin and washed with blocking buffer (SeaBlock (Pierce, ThermoFisher Scientific, Illkirch, France), 1% BSA, 0.05% Tween 20, 1 mM DTT) to remove unbound ligand and to reduce non-specific phage binding. […] An 11-point threefold serial dilution of each test compound was prepared in 100% DMSO at 100× final test concentration which and subsequently diluted to 1× in the assay. All reactions were performed in polystyrene 96-well plates in a final volume of 0.135 mL. […] The kinase concentration in the eluates was measured by qPCR.

FLT3(ITD) = test: KinomeScan; type: binding, human; settings: 1 μM
Method: as §1

CLK1 = CLK1 (Homo sapiens, UniProt P49759); test: KinomeScan; type: binding; settings: 1 μM
DYRK1A = DYRK1A (Homo sapiens, UniProt Q13627); test: Thr286-cyclin D1 phosphorylation in SH-SY5Y cells; type: cell-based; parameters: expressed in transfected cells; host or cells: SH-SY5Y neuroblastoma cells, doxycycline-inducible (gift from Dr. Walter Becker); settings: 30 μM, 24 h
[2] = 15 μmol/L ATP; read-out: IC50 TgCLK
[3] = 15 μmol/L ATP, read-out: IC50 LmDYRK2
[4] = 15 μmol/L ATP, read-out: IC50 CpLAMMER
[5] = 15 μmol/L ATP, read-out: IC50 LdDYRK3
[6] = 15 μmol/L ATP, read-out: IC50 LmCLK
[7] = 15 μmol/L ATP, read-out: IC50 PfCLK1
[8] = 15 μmol/L ATP, read-out: IC50 GlCLK
[9] = 15 μmol/L ATP, read-out: IC50 TcCLK1
[10] = 15 μmol/L ATP, read-out: IC50 PfGSK-3

Sequence of LmDYRK2 (Q4Q405 entry or part of it): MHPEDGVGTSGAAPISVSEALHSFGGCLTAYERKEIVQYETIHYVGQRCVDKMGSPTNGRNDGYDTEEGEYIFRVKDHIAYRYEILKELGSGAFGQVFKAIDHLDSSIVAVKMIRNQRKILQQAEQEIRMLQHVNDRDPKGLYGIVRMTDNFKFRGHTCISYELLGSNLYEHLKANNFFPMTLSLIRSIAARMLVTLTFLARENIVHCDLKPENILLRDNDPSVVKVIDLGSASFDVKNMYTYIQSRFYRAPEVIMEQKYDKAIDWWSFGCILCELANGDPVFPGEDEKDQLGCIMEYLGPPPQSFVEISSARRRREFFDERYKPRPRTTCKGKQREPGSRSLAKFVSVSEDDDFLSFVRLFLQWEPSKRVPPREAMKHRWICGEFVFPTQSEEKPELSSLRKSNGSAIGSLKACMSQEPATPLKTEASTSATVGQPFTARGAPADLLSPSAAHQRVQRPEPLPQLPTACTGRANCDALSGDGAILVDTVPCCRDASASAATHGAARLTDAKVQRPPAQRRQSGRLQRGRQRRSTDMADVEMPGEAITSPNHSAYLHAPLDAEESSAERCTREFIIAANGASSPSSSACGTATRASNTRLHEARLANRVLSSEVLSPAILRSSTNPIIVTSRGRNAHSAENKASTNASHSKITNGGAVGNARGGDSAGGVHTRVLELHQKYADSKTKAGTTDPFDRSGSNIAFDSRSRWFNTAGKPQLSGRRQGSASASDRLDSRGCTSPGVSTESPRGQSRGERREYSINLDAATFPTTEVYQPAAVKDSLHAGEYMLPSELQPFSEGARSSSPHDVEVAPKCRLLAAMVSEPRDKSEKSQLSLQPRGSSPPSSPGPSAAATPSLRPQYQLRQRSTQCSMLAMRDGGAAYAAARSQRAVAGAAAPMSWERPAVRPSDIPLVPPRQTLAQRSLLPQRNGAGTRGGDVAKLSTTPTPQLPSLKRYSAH
Sequence of CpLAMMER (A3FQG5 entry or part of it): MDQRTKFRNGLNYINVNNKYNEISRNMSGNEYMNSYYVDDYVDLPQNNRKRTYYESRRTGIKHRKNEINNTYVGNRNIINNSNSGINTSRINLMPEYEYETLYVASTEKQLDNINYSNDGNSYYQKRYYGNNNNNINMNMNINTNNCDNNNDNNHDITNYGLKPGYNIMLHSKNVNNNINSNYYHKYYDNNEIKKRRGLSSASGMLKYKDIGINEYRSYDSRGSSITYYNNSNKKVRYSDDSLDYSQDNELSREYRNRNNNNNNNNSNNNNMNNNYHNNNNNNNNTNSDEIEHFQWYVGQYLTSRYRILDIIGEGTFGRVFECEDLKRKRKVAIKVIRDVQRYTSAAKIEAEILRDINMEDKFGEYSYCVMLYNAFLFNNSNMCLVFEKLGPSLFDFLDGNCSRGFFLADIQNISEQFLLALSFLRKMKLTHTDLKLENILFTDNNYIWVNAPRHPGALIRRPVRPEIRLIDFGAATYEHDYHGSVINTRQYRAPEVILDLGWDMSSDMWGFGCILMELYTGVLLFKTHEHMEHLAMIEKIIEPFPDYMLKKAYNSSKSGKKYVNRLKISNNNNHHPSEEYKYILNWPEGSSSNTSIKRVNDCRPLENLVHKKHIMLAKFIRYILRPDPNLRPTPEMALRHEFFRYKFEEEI
Sequence of TcCLK1 (Q4E3Z1 entry or part of it): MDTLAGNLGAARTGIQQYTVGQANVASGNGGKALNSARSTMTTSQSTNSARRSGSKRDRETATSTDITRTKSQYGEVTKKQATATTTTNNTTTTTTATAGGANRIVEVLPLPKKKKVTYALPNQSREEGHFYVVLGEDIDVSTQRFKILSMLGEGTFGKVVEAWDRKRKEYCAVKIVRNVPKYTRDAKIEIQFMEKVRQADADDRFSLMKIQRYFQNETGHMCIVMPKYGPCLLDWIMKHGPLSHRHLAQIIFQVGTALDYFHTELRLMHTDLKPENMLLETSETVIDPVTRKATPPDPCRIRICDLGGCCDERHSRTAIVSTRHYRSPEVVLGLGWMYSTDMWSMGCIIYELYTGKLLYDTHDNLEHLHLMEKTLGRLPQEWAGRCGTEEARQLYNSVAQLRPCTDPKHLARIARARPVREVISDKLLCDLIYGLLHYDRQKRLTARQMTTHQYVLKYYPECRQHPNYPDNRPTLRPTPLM
Sequence of LdDYRK3 (E9BS59 entry or part of it): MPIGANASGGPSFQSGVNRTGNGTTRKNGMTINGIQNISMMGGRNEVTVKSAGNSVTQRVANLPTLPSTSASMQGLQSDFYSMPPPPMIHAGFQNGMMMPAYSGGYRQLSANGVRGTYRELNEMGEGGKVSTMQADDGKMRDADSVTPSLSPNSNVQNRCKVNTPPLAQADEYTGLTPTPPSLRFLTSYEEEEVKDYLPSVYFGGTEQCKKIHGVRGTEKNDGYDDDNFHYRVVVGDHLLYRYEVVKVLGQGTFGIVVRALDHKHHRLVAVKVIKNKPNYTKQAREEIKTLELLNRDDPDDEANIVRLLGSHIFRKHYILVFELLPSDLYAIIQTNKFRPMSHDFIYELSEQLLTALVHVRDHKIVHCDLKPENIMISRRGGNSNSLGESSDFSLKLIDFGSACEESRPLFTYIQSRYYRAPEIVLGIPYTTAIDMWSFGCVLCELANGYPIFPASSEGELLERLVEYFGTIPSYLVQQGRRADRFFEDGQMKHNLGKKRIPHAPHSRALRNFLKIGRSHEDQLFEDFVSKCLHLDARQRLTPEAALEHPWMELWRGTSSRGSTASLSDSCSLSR
Sequence of CLK3 (O35492 whole entry): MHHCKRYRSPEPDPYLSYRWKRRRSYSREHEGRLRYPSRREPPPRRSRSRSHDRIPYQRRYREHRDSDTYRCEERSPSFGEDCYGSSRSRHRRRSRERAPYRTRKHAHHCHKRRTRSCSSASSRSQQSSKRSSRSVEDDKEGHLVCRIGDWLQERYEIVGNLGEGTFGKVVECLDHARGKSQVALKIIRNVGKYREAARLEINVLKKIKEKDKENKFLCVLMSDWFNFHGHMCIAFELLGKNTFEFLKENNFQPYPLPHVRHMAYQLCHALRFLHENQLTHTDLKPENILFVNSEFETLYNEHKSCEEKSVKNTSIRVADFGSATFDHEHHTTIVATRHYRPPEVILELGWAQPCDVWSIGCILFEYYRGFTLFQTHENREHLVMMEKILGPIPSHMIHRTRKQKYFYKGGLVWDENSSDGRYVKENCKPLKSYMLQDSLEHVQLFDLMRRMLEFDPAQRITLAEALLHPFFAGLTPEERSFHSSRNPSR
Sequence of PfCLK1 (Q8IL19 entry or part of it): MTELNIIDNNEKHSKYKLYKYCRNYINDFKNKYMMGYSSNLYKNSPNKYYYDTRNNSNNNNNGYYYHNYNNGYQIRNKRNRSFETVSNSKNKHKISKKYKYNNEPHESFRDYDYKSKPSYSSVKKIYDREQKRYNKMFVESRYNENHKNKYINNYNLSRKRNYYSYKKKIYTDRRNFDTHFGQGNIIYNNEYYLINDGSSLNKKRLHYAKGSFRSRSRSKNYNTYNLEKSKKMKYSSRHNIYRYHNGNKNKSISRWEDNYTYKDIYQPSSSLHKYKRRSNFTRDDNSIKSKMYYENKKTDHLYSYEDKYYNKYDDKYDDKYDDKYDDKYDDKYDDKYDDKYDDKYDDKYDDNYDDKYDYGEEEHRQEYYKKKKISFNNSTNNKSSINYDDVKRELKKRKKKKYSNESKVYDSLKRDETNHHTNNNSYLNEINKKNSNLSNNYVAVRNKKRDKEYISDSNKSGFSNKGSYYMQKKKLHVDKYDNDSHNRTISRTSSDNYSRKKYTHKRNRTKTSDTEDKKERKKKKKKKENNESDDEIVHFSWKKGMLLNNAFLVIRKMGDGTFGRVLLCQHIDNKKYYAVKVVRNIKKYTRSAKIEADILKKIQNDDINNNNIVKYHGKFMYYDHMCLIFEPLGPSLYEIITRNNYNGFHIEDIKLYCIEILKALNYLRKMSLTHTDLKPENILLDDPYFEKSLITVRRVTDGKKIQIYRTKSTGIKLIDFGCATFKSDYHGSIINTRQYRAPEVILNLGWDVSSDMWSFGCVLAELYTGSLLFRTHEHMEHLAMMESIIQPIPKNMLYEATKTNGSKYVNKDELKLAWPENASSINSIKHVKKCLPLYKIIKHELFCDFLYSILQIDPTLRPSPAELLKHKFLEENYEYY
Sequence of LmCLK (Q4QHY4 entry or part of it): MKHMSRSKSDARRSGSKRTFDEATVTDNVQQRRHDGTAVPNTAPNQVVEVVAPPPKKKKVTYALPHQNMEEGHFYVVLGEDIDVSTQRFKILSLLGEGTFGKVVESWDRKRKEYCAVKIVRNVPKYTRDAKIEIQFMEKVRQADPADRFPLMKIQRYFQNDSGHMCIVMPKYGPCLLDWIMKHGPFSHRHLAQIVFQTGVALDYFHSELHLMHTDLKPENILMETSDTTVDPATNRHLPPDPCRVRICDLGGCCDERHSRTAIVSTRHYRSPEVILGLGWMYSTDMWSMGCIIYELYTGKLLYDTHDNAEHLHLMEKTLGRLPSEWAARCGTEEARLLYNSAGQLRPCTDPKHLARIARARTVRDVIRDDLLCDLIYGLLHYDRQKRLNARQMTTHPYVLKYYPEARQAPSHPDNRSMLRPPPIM
Sequence of GlCLK (A8BBY0 entry or part of it): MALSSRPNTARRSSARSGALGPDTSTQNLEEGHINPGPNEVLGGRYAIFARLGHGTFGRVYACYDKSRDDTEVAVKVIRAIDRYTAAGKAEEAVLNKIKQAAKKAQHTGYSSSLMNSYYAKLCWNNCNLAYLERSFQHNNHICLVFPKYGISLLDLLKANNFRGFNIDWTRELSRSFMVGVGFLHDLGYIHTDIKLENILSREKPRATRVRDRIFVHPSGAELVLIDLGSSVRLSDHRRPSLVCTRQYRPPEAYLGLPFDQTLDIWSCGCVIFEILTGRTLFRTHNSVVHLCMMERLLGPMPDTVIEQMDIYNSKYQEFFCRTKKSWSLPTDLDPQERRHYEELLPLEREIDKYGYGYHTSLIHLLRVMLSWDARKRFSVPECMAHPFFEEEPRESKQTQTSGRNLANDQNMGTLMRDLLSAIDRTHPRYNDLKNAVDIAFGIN

activity in the kinase panel [1] | IC50 (GSK-3α/β) [µM] | IC50 (LdDYRK1B) [µM] | IC50 (CLK4) [µM] | IC50 (CLK3) [µM] | IC50 (LmDYRK2; [3]) [µM] | IC50 (CpLAMMER; [4]) [µM] | IC50 (LdDYRK3; [5]) [µM] | IC50 (LmCLK; [6]) [µM] | IC50 (PfCLK1; [7]) [µM] | IC50 (GlCLK; [8]) [µM] | IC50 (TcCLK1; [9]) [µM] | IC50 (PfGSK-3; [10]) [µM] | SMILES | IC50 (TgCLK; [2]) [µM] | further results
– | 0.0032 | 0.042 | 0.0029 | 0.0053 | 0.38 | 0.016 | 0.021 | 0.4 | 0.011 | 0.012 | 0.51 | 0.0041 | NC1=NC(=O)/C(=C2\CCNC(=O)c3[nH]c(Br)cc32)N1 [Hymenialdisine, reference compound] | 0.041 | –
essentially inactive | > 10 | > 10 | > 10 | > 10 | > 10 | > 10 | > 10 | > 10 | > 10 | > 10 | > 10 | > 10 | CN1C(=N)N(C)/C(=C\c2c[nH]c3ccccc23)C1=O [Aplysinopsine] | > 10 | –
– | 0.044 | 0.5 | 0.0036 | 0.049 | 9 | 0.13 | 0.3 | 5.2 | 0.085 | 0.12 | 1.1 | 0.038 | NC1=NC(=O)/C(=C2\CCNC(=O)c3[nH]cc(Br)c32)N1 [Spongiacidin B] | 0.48 | –
essentially inactive | > 10 | > 10 | 3.5 | > 10 | > 10 | > 10 | 7.9 | > 10 | > 10 | > 10 | > 10 | > 10 | CN1C(=N)N=C(Nc2nc(Cc3ccc4c(c3)OCO4)cn2C)C1=O [Clathridimine] | > 10 | –

The next lines start with the molecule.

SMILES | activity in the kinase panel [1] | IC50 (GSK-3α/β) [µM] | IC50 (LdDYRK1B) [µM] | IC50 (CLK4) [µM] | IC50 (CLK3) [µM] | IC50 (LmDYRK2; [3]) [µM] | IC50 (CpLAMMER; [4]) [µM] | IC50 (LdDYRK3; [5]) [µM] | IC50 (LmCLK; [6]) [µM] | IC50 (PfCLK1; [7]) [µM] | IC50 (GlCLK; [8]) [µM] | IC50 (TcCLK1; [9]) [µM] | IC50 (PfGSK-3; [10]) [µM] | IC50 (TgCLK; [2]) [µM] | further results
CN1C(=O)/C(=C/c2ccc3c(c2)OCO3)N=C1N [Leucettamine B] | modestly active | 7.3 | 6.9 | 0.12 | 9.7 | – | – | – | – | – | – | – | – | – | IC50 (TgCLK; read-out: IC50 TgCLK; 15 μmol/L ATP): 4.1 µM; IC50 (LmDYRK2): 4.2 µM; IC50 (CpLAMMER): 1.8 µM; IC50 (LdDYRK3): > 10 µM; IC50 (LmCLK): > 10 µM; IC50 (PfCLK1): 0.79 µM; IC50 (GlCLK): 3.1 µM; IC50 (TcCLK1): > 10 µM; IC50 (PfGSK-3): > 10 µM
CN1C(=O)N=C(Nc2nc(Cc3ccc4c(c3)OCO4)cn2C)C1=O [Clathridine] | essentially inactive | > 10 | > 10 | 3.9 | > 10 | > 10 | > 10 | > 10 | > 10 | > 10 | > 10 | > 10 | > 10 | > 10 | –
COc1cc(/C=C2\N=C(N)NC2=O)ccc1O [Polyandrocarpamine A] | – | – | 1.1 | 0.32 | 2.6 | 5.9 | 0.17 | > 10 | > 10 | 0.65 | 0.95 | > 10 | > 10 | > 10 | Score (EGFR(L747-T751del,Sins)): 92; Score (FLT3(ITD)): 100; Score (CLK1): 32; Phosphorylation of cyclin D1 at Thr286 (DYRK1A): partially inhibited
NC1=N/C(=C\CCNC(=O)c2cc(Br)c(Br)[nH]2)C(=O)N1 [Dispacamide] | essentially inactive | > 10 | > 10 | > 10 | > 10 | > 10 | > 10 | > 10 | > 10 | > 10 | > 10 | > 10 | > 10 | > 10 | –
NC1=N/C(=C\c2ccc(O)c(O)c2)C(=O)N1 [Polyandrocarpamine B] | – | > 10 | > 10 | 0.82 | 8.6 | > 10 | 0.2 | > 10 | > 10 | 3.1 | 2.2 | > 10 | > 10 | > 10 | –
